Source: patent US8247211B2, “Glycopeptide antibiotics” (American Cyanamid Company, priority 2001, dated 2012)

Assays:
Enterococcus sp. = assay: In vitro antibacterial evaluation: minimum inhibitory concentration (MIC), broth dilution method; format: cell-based; details: for MIC Enterococcus faecium (GC 4557): strain GC 4557; for MIC Enterococcus faecalis (ATCC 29212): strain ATCC 29212; for MIC Enterococcus faecalis (GC 4552): strain GC 4552
How it was run: (§1)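 An MIC is reported for each organism as the least concentration giving inhibition, using broth dilution over 64-0.06 μg/mL with a 5×10^5 CFU/mL inoculum.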

Escherichia coli = assay: as above; format: cell-based; details: for MIC Escherichia coli (GC 4560): strain GC 4560; for MIC Escherichia coli (GC 4559): strain GC 4559
How it was run: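 Following NCCLS approved standard M7-A2, compounds are serially diluted from 64 to 0.06 μg/mL in Muller-Hinton II […] and inoculated at 5×10^5 CFU/mL; the MIC is the minimum concentration at which growth is inhibited.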

Streptococcus sp. = assay: as above; format: cell-based
How it was run: as §1

[1] = tested on: Staphylococcus aureus-SMITH (GC 4543); assay: Acute lethal infection in mice (ED50); format: in vivo; details: female CD-1 mice, intraperitoneal challenge, intravenous dose 30 min. after infection, 7 day survival ratios
Protocol: The therapeutic effects of glycopeptide antibiotics of Formula I are determined against acute lethal infections with S. aureus (strain Smith), a penicillin resistant strain of S. pneumoniae (strain GC 1894), and a vancomycin resistant strain of E. fecalis (strain GC 6189 and GC 2246). Female mice, CD-1 (Charles River Laboratories), 20 +1-2 gm, are challenged by intraperitoneal injection of sufficient bacteria (suspended in Trypticase Soy Broth or hog gastric mucin) to kill non-treated controls within 24-48 hr. Antibacterial agents, contained in 0.2 mL of saline or 5% dextrose solution, are administered intravenously 30 min. after infection. Five mice are treated at each dose level. The 7 day survival ratios from 3 separate tests are pooled for calculation of median effective dose (ED50).

Staphylococcus sp. = assay: In vitro antibacterial evaluation: minimum inhibitory concentration (MIC), broth dilution method; format: cell-based; details: for MIC Coagulase Negative Staphylococcus (GC 4537): strain GC 4537; for MIC Coagulase Negative Staphylococcus (GC 4538): strain GC 4538
How it was run: as §1

[2] = Streptococcus pneumoniae (GC 1894), broth dilution, 18 hours at 35° C.
[3] = broth dilution, 18 hours at 35° C.

CC(c1ccccc1)C1NC(=O)CNC(=O)C(CO)NC(=O)C(C(O)C2CN(Cc3ccccc3)C(=NCc3ccccc3)N2C2OC(CO)C(O)C(O)C2O)NC(=O)C(C(O)C2CN(Cc3ccccc3)C(=NCc3ccccc3)N2Cc2ccccc2)NC(=O)C(Cc2ccc(OC3OC(CO)C(OC4OC(CO)C(O)C(O)C4O)C(O)C3O)cc2)NC1=O (stereo not drawn) [Example 62, Cyclo[glycyl-β-methylphenylalanyl-O-(4-O-hexopyranosylhexopyranosyl)tyrosyl-3-[1,3-dibenzyl-2-(benzylimino)imidazolidin-4-yl]seryl-3-[1-benzyl-2-(benzylimino)-3-hexopyranosylimidazolidin-4-yl]serylseryl]]
4 µg/mL: MIC Escherichia coli (GC 4560) (Escherichia coli)
64 µg/mL: MIC Enterococcus faecium (GC 4557) (Enterococcus sp.) | MIC Streptococcus pneumoniae (GC 1894) (Streptococcus sp.; [2]) | MIC Streptococcus pneumoniae (GC 1894) (Streptococcus sp.; strain GC 1894)
>8: median effective dose (ED50), Staphylococcus aureus-SMITH (GC 4543) [1]

CC(c1ccccc1)C1NC(=O)CNC(=O)C(CO)NC(=O)C(CC2CN(Cc3ccccc3)C(=NCc3ccccc3)N2C2OC(CO)C(O)C(O)C2O)NC(=O)C(CC2CN(Cc3ccccc3)C(=NCc3ccccc3)N2Cc2ccccc2)NC(=O)C(Cc2ccc(OC3OC(CO)C(OC4OC(CO)C(O)C(O)C4O)C(O)C3O)cc2)NC1=O (stereo not drawn) [Example 73, Cyclo[3-[1,3-benzyl-2-(benzylimino)imidazolidin-4-yl]alanyl-3-[1-benzyl-2-(benzylimino)-3-hexopyranosylimidazolidin-4-yl]alanylserylglycyl-β-methylphenylalanyl-O-(4-O-hexopyranosylhexopyranosyl)tyrosyl]]
>8: median effective dose (ED50), Staphylococcus aureus-SMITH (GC 4543) [1]
64 µg/mL: MIC Streptococcus pneumoniae (GC 1894) (Streptococcus sp.; [2]) | MIC Streptococcus pneumoniae (GC 1894) (Streptococcus sp.; strain GC 1894)
16 µg/mL: MIC Escherichia coli (GC 4560) (Escherichia coli)

CC(c1ccccc1)C1NC(=O)CNC(=O)C(CO)NC(=O)C(CC2CN(Cc3ccccc3)C(=N)N2C2OC(CO)C(O)C(O)C2O)NC(=O)C(CC2CNC(=N)N2)NC(=O)C(Cc2ccc(OC3OC(CO)C(OC4OC5COC6(OC5C(O)C4O)C4CC5CC(C4)CC6C5)C(O)C3O)cc2)NC1=O (stereo not drawn) [Example 80, Cyclo[3-(2-iminoimidazolidin-4-yl)alanyl-3-(1-benzyl-3-hexopyranosyl-2-iminoimidazolidin-4-yl)alanylserylglycyl-β-methylphenylalanyl-O-[4-O-[4,6-O-(2-adamantylidene)hexopyranosyl]hexopyranosyl]tyrosyl]]
>8: median effective dose (ED50), Staphylococcus aureus-SMITH (GC 4543) [1]
8 µg/mL: MIC Escherichia coli (GC 4560) (Escherichia coli) | MIC Coagulase Negative Staphylococcus (GC 6257) (Staphylococcus sp.; [3]) | MIC Streptococcus agalactiae (GC 4564) (Streptococcus sp.; Streptococcus agalactiae (GC 4564), broth dilution, 18 hours at 35° C.) | MIC Streptococcus pneumoniae (ATCC 6301) (Streptococcus sp.; Streptococcus pneumoniae (ATCC 6301), broth dilution, 18 hours at 35° C.) | MIC Streptococcus pyogenes (GC 4563) (Streptococcus sp.; Streptococcus pyogenes (GC 4563), broth dilution, 18 hours at 35° C.) | MIC Streptococcus pneumoniae (ATCC 6301) (Streptococcus sp.; strain ATCC 6301) | MIC Streptococcus pyogenes (GC 4563) (Streptococcus sp.; strain GC 4563) | MIC Streptococcus agalactiae (GC 4564) (Streptococcus sp.; strain GC 4564)
32 µg/mL: MIC Enterococcus faecalis (GC 2242) (Enterococcus sp.; Enterococcus faecalis (GC 2242), broth dilution, 18 hours at 35° C.) | MIC Enterococcus faecalis (GC 2242) (Enterococcus sp.; strain GC 2242) | MIC Enterococcus faecium (GC 2243) (Enterococcus sp.; strain GC 2243) | MIC Enterococcus faecalis (GC 4553) (Enterococcus sp.; strain GC 4553) | MIC Enterococcus avium (GC 4558) (Enterococcus sp.; strain GC 4558) | MIC Coagulase Negative Staphylococcus (GC 4547) (Staphylococcus sp.; [3]) | MIC Coagulase Negative Staphylococcus (GC 4548) (Staphylococcus sp.; [3]) | MIC Coagulase Negative Staphylococcus (GC 4549) (Staphylococcus sp.; [3]) | MIC Coagulase Negative Staphylococcus (GC 4551) (Staphylococcus sp.; [3]) | MIC Staphylococcus aureus (ATCC 29213) (Staphylococcus sp.; [3]) | MIC Staphylococcus aureus (GC 1131) (Staphylococcus sp.; [3]) | MIC Staphylococcus aureus (GC 3051) (Staphylococcus sp.; [3]) | MIC Staphylococcus aureus (GC 4541) (Staphylococcus sp.; [3]) | MIC Staphylococcus aureus (GC 4542) (Staphylococcus sp.; [3]) | MIC Staphylococcus aureus (GC 4544) (Staphylococcus sp.; [3]) | MIC Staphylococcus aureus (GC 4545) (Staphylococcus sp.; [3]) | MIC Staphylococcus aureus SMITH (GC 4543) (Staphylococcus sp.; [3]) | MIC Staphylococcus haemolyticus (GC 4546) (Staphylococcus sp.; [3]) | MIC Staphylococcus aureus-SMITH (GC 4543) (Staphylococcus sp.; strain SMITH GC 4543, broth dilution, 18 hours at 35° C.)
64 µg/mL: MIC Enterococcus faecalis (GC 2691) (Enterococcus sp.; Enterococcus faecalis (GC 2691), broth dilution, 18 hours at 35° C.) | MIC Enterococcus faecalis (GC 3059) (Enterococcus sp.; Enterococcus faecalis (GC 3059), broth dilution, 18 hours at 35° C.) | MIC Enterococcus faecalis (ATCC 29212) (Enterococcus sp.) | MIC Enterococcus faecalis (GC 2691) (Enterococcus sp.; strain GC 2691) | MIC Enterococcus faecalis (GC 3059) (Enterococcus sp.; strain GC 3059) | MIC Enterococcus faecalis (GC 4552) (Enterococcus sp.) | MIC Enterococcus faecalis (GC 4554) (Enterococcus sp.; strain GC 4554) | MIC Enterococcus faecium (GC 4556) (Enterococcus sp.; strain GC 4556) | MIC Enterococcus faecalis (GC 6189) (Enterococcus sp.; strain GC 6189) | MIC Staphylococcus aureus (GC 3053) (Staphylococcus sp.; [3])
16 µg/mL: MIC Enterococcus faecium (GC 4557) (Enterococcus sp.) | MIC Streptococcus pneumoniae (GC 4565) (Streptococcus sp.; Streptococcus pneumoniae (GC 4565), broth dilution, 18 hours at 35° C.) | MIC Streptococcus pneumoniae (GC 4565) (Streptococcus sp.; strain GC 4565)
>64 µg/mL: MIC Escherichia coli (ATCC 25922) (Escherichia coli; strain ATCC 25922) | MIC Escherichia coli (GC 4559) (Escherichia coli)
4 µg/mL: MIC Streptococcus pneumoniae (GC 1894) (Streptococcus sp.; [2]) | MIC Streptococcus pneumoniae (GC 1894) (Streptococcus sp.; strain GC 1894)

CCCCCCC(=O)OCC1OC(OC2C(CO)OC(Oc3ccc(CC4NC(=O)C(C(C)c5ccccc5)NC(=O)CNC(=O)C(CO)NC(=O)C(C(O)C5CNC(=N)N5C5OC(CO)C(O)C(O)C5O)NC(=O)C(C(O)C5CNC(=N)N5)NC4=O)cc3)C(O)C2O)C(O)C(O)C1O (stereo not drawn) [Example 97b, Cyclo[glycyl-β-methylphenylalanyl-O-[4-O-(6-O-heptanoylhexopyranosyl)hexopyranosyl]-tyrosyl-3-(2-iminoimidazolidin-4-yl)seryl-3-(3-hexopyranosyl-2-iminoimidazolidin-4-yl)-serylseryl]]
2 µg/mL: MIC Enterococcus faecalis (GC 2242) (Enterococcus sp.; strain GC 2242)
8 mg/kg: median effective dose (ED50), Staphylococcus aureus-SMITH (GC 4543) [1]
4 µg/mL: MIC Enterococcus faecalis (ATCC 29212) (Enterococcus sp.) | MIC Enterococcus faecalis (GC 4552) (Enterococcus sp.)
32 µg/mL: MIC Escherichia coli (GC 4559) (Escherichia coli)
0.5 µg/mL: MIC Staphylococcus aureus SMITH (GC 4536) (Staphylococcus sp.; [3]) | MIC Staphylococcus aureus-SMITH (GC 4536) (Staphylococcus sp.; strain SMITH GC 4536, broth dilution, 18 hours at 35° C.)
1 µg/mL: MIC Escherichia coli (GC 4560) (Escherichia coli) | MIC Staphylococcus aureus (ATCC 29213) (Staphylococcus sp.; [3]) | MIC Staphylococcus aureus (GC 1131) (Staphylococcus sp.; [3]) | MIC Staphylococcus aureus (GC 4535) (Staphylococcus sp.; [3]) | MIC Coagulase Negative Staphylococcus (GC 4537) (Staphylococcus sp.) | MIC Coagulase Negative Staphylococcus (GC 4537) (Staphylococcus sp.; [3]) | MIC Coagulase Negative Staphylococcus (GC 4538) (Staphylococcus sp.) | MIC Coagulase Negative Staphylococcus (GC 4538) (Staphylococcus sp.; [3]) | MIC Coagulase Negative Staphylococcus (GC 4547) (Staphylococcus sp.; strain GC 4547) | MIC Coagulase Negative Staphylococcus (GC 4547) (Staphylococcus sp.; strain GC 4547, broth dilution, 18 hours at 35° C.)
